How the values were obtained:
[1] = tested on: CA1 pyramidal neurons; experiment: Acute in vitro application on hippocampal slices: CA1 neuronal activity; assay type: cell-based, mouse; settings: 1-month old APP/PS1-21 animals
Experimental: Coronal sections of the hippocampus (thickness 300 μm) were prepared from APP/PS1-21 transgenic mice (1 month and 3 months old) or from WT mice from the same litter. The mice were sacrificed by decerebration and decapitation. The brain was quickly removed and sectioned in ice-cold ACSF containing (in mM) : 2.5 KCl, 7 MgCl2, 0.5 CaCl2, 1.2 NaHPO4, 25 NaHCO3, 11D-glucose and 234 sucrose bubbled with 95% of O2 and 5% of CO2 with a V[…] vibratome (Leica, Germany). The sections containing the hippocampus were placed in ACSF containing (in mM) : 126 NaCl, 2.5 KCl, 1.2 MgCl2, 2.5 CaCl2, 1.2 NaH2PO4 bubbled with 95% of O2 and 5% of CO2 and supplemented with 1 mM of sodium pyruvate at room temperature for a recovery period. Whole-cell recordings were performed on visually identified CA1 pyramidal neuron somas. […] The sEPSCs and their kinetics were analyzed, after a stabilization period of 10 minutes, 5 minutes from the recordings. Access resistance was constantly monitored and recordings were excluded from this study when this parameter varied more than 20% during the experiment. Recordings were analyzed using the Clampfit module of pClamp8 software (Molecular Devices, USA) with a single one at 20 pA to exclude miniature sEPSCs.

[2] = tested on: CA1 pyramidal neurons of APP/PS1-21 and WT mice; experiment: Chronic intraperitoneal treatment: whole-cell recording of sEPSCs of CA1 pyramidal neurons; assay type: in vivo, mouse
Experimental: The used model is a transgenic murine model obtained on a C57BL/6J genetic background which co-expresses the mutated human form of the amyloid precursor protein (mutated APP KM670/671NL) and of presenilin 1 (mutated PS1 L166P) under the control of the neural promoter Thy1. The presence of these two mutations allows increased production of the Aβ peptide from the 14th postnatal day. This leads to cerebral amyloidosis with the appearance of the first senile plaques around 8 postnatal weeks. This amyloid pathology is accompanied by inflammatory gliosis (microgliosis and astrogliosis detectable from 4 months), dendritic spine dystrophy and tau hyperphosphorylation (around 8 months). Cognitive behavioral disorders, and in particular of learning and spatial memory, are developed in around 6 to 8 months. This model was set-up and described by Rebecca Radde in 2006 (Radde et al., EMBO reports, 2006) and is widely used by the scientific community. This model is available in the animal facility of the Institut des Neurosciences de Grenoble and has been bred by the inventors since 2014. This solution is then diluted to 1 μg/μl in an isotonic solution containing 1% Pluronic F-127 and 0.9% NaCl. The animals are injected daily intraperitoneally at a dose of 5 mg/kg of body mass. Sterile 0.5 ml BD MicroFine syringes with no dead volume, equipped with a 30G (0.3 mm) needle are used for the injections. The carrier (10% DMSO, 1% Pluronic F-127, 0.9% NaCl) is used as a control and is also injected daily, according to the same procedure, into the WT and APP/PS1 control animals (carrier groups). The injection is started from the 14th postnatal day (appearance of the expression of the Thy1gene promoter in the hippocampus, triggering the overexpression of Aβ in the APP/PS1-21 murine model) Coronal sections of the hippocampus (thickness 300 μm) were prepared from APP/PS1-21 transgenic mice (1 month and 3 months old) or from WT mice from the same litter. The mice were sacrificed by decerebration and decapitation. The brain was quickly removed and sectioned in ice-cold ACSF containing (in mM) : 2.5 KCl, 7 MgCl2, 0.5 CaCl2, 1.2 NaHPO4, 25 NaHCO3, 11D-glucose and 234 sucrose bubbled with 95% of O2 and 5% of CO2 with a V[…] vibratome (Leica, Germany). The sections containing the hippocampus were placed in ACSF containing (in mM) : 126 NaCl, 2.5 KCl, 1.2 MgCl2, 2.5 CaCl2, 1.2 NaH2PO4 bubbled with 95% of O2 and 5% of CO2 and supplemented with 1 mM of sodium pyruvate at room temperature for a recovery period. Whole-cell recordings were performed on visually identified CA1 pyramidal neuron somas. The patch pipettes (4-6 MΩ) were filled with an internal solution containing (in mM): 105 K-gluconate, 30 KCL, 10 phosphocreatine, 10 HEPES, 4 ATP-Mg, 0.3 GTP-Tris, 0.3 EGTA, adjusted to pH 7.2 with KOH. Spontaneously excitatory postsynaptic currents (sEPSCs) were collected at a membrane holding potential of -60 mV which is close to the GABA reversal potential. All recordings were made at room temperature (22-24° C.) and only a single neuron was studied per section. The sEPSCs and their kinetics were analyzed, after a stabilization period of 10 minutes, 5 minutes from the recordings. Access resistance was constantly monitored and recordings were excluded from this study when this parameter varied more than 20% during the experiment. Recordings were analyzed using the Clampfit module of pClamp8 software (Molecular Devices, USA) with a single one at 20 pA to exclude miniature sEPSCs.

[3] = APP/PS1-21 mice, 3 months, 5 mg/kg i.p. from 14th postnatal day
[4] = WT mice, 3 months, chronic treatment 5 mg/kg i.p.

## CC(C)c1ccc(NC(=O)Cn2cnc3c2c(=O)n(C)c(=O)n3C)cc1 [HC030031, 2-(1,3-Dimethyl-2,6-dioxo-1,2,3,6-tetrahydro-7H-purin-7-yl)-N-(4-isopropylphenyl)acetamide]
[1]
  neuronal hyperactivity (CA1): fully restored
[2]; 1-month old mice, 5 mg/kg i.p. daily from 14th postnatal day
  sEPSC amplitude: no impact
[2]; [3]
  amplitude of sEPSCs: 33.4±1.4 pA
  frequency of sEPSCs: 0.10±0.01 Hz
[2]; APP/PS1-21 transgenic mice, 1 month, 5 mg/kg i.p. daily from 14th postnatal day
  frequency of sEPSCs: 0.10±0.02 Hz
[2]; WT litter mice, 1 month, 5 mg/kg i.p. daily from 14th postnatal day
  frequency of sEPSCs: 0.10±0.04 Hz
[2]; [4]
  amplitude of the sEPSCs: no effect
  frequency of the sEPSCs: no effect
